From patent US11660280B2, “Treatment of drug resistant gliomas” (OKLAHOMA MEDICAL RESEARCH FOUNDATION, priority 2017, dated 2023)

Experiments:
[1] = tested on: MGMT; test: RT-PCR gene-fold changes in human GBM cells; assay type: cell-based
Method: (§1) Quantification of mRNA by real-time quantitative RT-PCR for HIF-1a, MPG and MGMT. Total RNA from all cell lines with all treatments was purified with an RNeasy Mini Kit (Qiagen), and quantified by spectrophotometry (Nanodrop). cDNA was synthesized using SuperScript IV Reverse Transcriptase Kit (Invitrogen).
(§2) Target gene mRNA was amplified and measured by Bio-Rad CFX96™ Real Time System. Gene expression was determined using the SYBR Select Master Mix (Applied Biosystems). […] The reaction is characterized by the point during cycling when amplification of PCR products is first detected, rather than the amount of PCR product accumulated after a fixed number of cycles. The higher the starting quantity of the template, the earlier a significant increase in fluorescence is observed. The threshold cycle is defined as the fractional cycle number at which fluorescence passes a fixed threshold above the baseline. Fluorescence data were converted into cycle threshold measurements exported to Microsoft Excel. Glyceraldehyde-3-phosphatase dehydrogenase (GAPDH) mRNA expression levels were used as the quantitative internal control. For precise quantification, the mRNA expression level of each sample was normalized using the expression of the GAPDH gene.
(§3) All primers were synthesized by Integrated DNA Technologies. The primers used were: […]
(§4) were used to amplify 603-bp transcripts of MPG [9].

[2] = tested on: MPG; test: RT-PCR gene-fold changes in human GBM cells; assay type: cell-based
Method: as §1, §2, §3, §4

[3] = tested on: G55 GBM cells; test: Cell migration in laminin-coated PDMS micro-channels; assay type: cell-based, human; conditions: at 22 h and 46 h following treatment
Method: Cell migration. For the migration study, 6-well chambers with PDMS (polydimethylsiloxane) micro-channels inside were coated with 10 μg/ml of laminin (Sigma-Aldrich) in each well. G55 cells were seeded (50×10^3) in 100 μl and supplemented with 2 ml of media in each well. The chambers were incubated in the incubator at 37° C. with 5% CO2 until scheduled time points. Some chambers were treated with OKN-007, TMZ or OKN-007 combined with TMZ (1 μL/mL media for both OKN-007 and TMZ, as well as when the two are combined), and for each treatment group one well was left untreated as a control. Images of the cells inside the microchannels were taken using an Olympus CK40 inverted microscope (Japan) under 10× and the distances of the same cells traveled were measured at 22 h, 28 h, and 46 h post seeding, cell migration speed (μm/h) was calculated. Each treatment was repeated at least 3 times and data shown as mean ±S.D.

[4] = tested on: GBM cells (LN229, U138, G55, U251, T98, LN18); test: Cell viability at 1 mM vs 2 mM OKN; assay type: cell-based, human
[5] = tested on: human G55 xenograft; test: Orthotopic G55 human GBM xenograft in nude mice (survival, MRI tumor volume, perfusion rCBF); assay type: in vivo, mouse
Method: Mice and Treatments. Animal studies were conducted in accordance to the OMRF IACUC (Institutional Animal Care and Use Committee) policies, which follow NIH guidelines. Two-month-old male nude mice (Hsd:Athymic Nude-Foxnlnu mice; Harlan Inc., Indianapolis, Ind.) were implanted intra-cerebrally with human G55 xenograft cells (1×10^7) per mL suspended in 4 μL in cell culture media of 1% aragose solution. Once tumors reached 10-15 mm^3 (determined via MRI), mice were either treated every 3 days with OKN-007 (150 mg/kg; via drinking water continuously) or TMZ (30 mg/kg via gavage every 3 days). TMZ was dissolved in 5% DMSO and 5% solutol-15 in sterile saline. Mice were treated until the tumor reached 100-150 mm^3 or for a total of up to 60 days after tumors were detected by MRI (>5 mm^3).
MRI. MRI experiments were performed on a Bruker Bio-spec 7.0 Tesla/30-cm horizontal-bore magnet imaging system. […] T2-weighted imaging was obtained, and tumor volumes were calculated from MRI datasets.
Perfusion imaging. In order to assess microvascular alterations associated with tumor capillaries, the perfusion imaging method, arterial spin labeling (ASL), was used. Perfusion maps were obtained on a single axial slice of the brain located on the point of the rostro-caudal axis where the tumor has the largest cross-section. Five regions of interest (ROIs) were manually outlined around the tumor, and appropriate ROIs were also taken from the contralateral side of the brain for comparison purposes. To calculate the differences in rCBF values, tumor rCBF values were obtained at late (days 18-26 following intracerebral implantation of cells for untreated mice) and early (days 10-13 following cell implantation) tumor stages, and normalized to rCBF values in the contralateral brain region of corresponding animals.
Statistical analyses. Survival curves were analyzed using Kaplan-Meier curves. Tumor volumes, changes in normalized rCBF, and LBP levels were compared by two-way ANOVA with multiple comparisons. Data were represented as mean±SD, and P-values of either *0.05, **0.01, ***0.001, and ****0.0001 were considered statistically significant.
Mice and Treatments. Animal studies were conducted in accordance to the OMRF IACUC (Institutional Animal Care and Use Committee) policies, which follow NIH guidelines. […] Once tumors reached 10-15 mm^3 (determined via MRI), mice were either treated daily with OKN-007 in the drinking water (150 mg/kg; 0.20% w/v for a 20 g mouse), or every 3 days with TMZ (30 mg/kg). […] Water bottles were weighed, and the amount of OKN-007 consumed per mouse was determined. […]

[6] = tested in vivo; cited from earlier work

CC(C)(C)[N+]([O-])=Cc1ccc(S(=O)(=O)O)cc1S(=O)(=O)O [OKN-007, 2,4-disulfonyl phenyl tert-butyl nitrone]
RT-PCR gene-fold change MGMT ([1]; LN18 cells (TMZ-resistant), UT 1.06): 0.42 fold | RT-PCR gene-fold change MGMT ([1]; T98 cells (TMZ-resistant), UT 1.00): 0.54 fold | RT-PCR gene-fold change MGMT ([1]; U251 cells (TMZ-sensitive), UT 1.00): 1.22 fold | RT-PCR gene-fold change MPG ([2]; G55 cells (TMZ-resistant), UT 1.06): 4.52 fold | RT-PCR gene-fold change MPG ([2]; LN18 cells (TMZ-resistant), UT 1.00): 0.60 fold | RT-PCR gene-fold change MPG ([2]; LN229 cells (TMZ-sensitive), UT 1.10): 0.62 fold | RT-PCR gene-fold change MPG ([2]; T98 cells (TMZ-resistant), UT 1.10): 0.62 fold | RT-PCR gene-fold change MPG ([2]; U138 cells (TMZ-resistant), UT 1.13): 11.10 fold | RT-PCR gene-fold change MPG ([2]; U251 cells (TMZ-sensitive), UT 1.10): 0.81 fold | cell migration speed compared to untreated (UT) cells [3]: significantly decreased | reduction of cell viabilities, 1 mM OKN compared to the 2 mM concentration ([4]; LN229, U138, G55 cells): just as effective | reduction of cell viabilities, 2 mM OKN compared to the 1 mM concentration ([4]; U251, T98, LN18 cells): slightly more effective | percent of treated mice alive 60 days following tumor detection ([5]; G55 glioma-bearing nude mice, OKN-007 150 mg/kg in drinking water, TMZ 30 mg/kg gavage every 3 days, n=5): 20% | tumor volumes compared to UT mice ([5]; MRI at 19-22 days following tumor detection, G55 glioma-bearing mice): significantly decreased tumor volumes | tumor volumes compared to UT mice ([5]; last MRI time-point for each treatment group): no significant difference in tumor volumes | tumor perfusion rates compared to TMZ treatment ([5]; perfusion MRI, no significant differences between treated groups): more normalized perfusion rates | efficacy as compared to PBN [6]: unexpected increase in efficacy | potency as compared to PBN [6]: increase in potency | toxicity as compared to PBN [6]: marked and highly significant decrease in toxicity
